Tests used:
[1] = target: T1, 6-phosphofructo-1 kinase (PFK1) (Mus musculus, UniProt P47857); experiment: PFK1 enzyme assay; assay type: biochemical
T1 construct: made in house; host or cells: E. coli
Experimental: (§1) Figure 1 The AMP Analog C2 Is a Potent AMPK Activator in Cell-Free Assays with Selectivity for α1 Complexes (A) The structure of the endogenous activator of AMPK, AMP; the AMP mimetic, C2; and the classical AMP mimetic, ZMP, and other AMPK activators are shown. […] (B) Recombinant AMPK complexes (α1β1γ1, α2β1γ1, α1β1γ2, and α1β2γ1) expressed in Spodoptera frugiperda were assayed for allosteric activation by AMP or C2. Results are expressed as the increase in activity relative to controls without ligand and represent the mean ± SD for three independent experiments. (C) Enzymes allosterically regulated by AMP (PFK1 and FBP1) or using AMP as a substrate (AMPD1, AK, and 5′-NT) were assayed in the presence of C2 (≤ 100 μM). Enzymes allosterically regulated by AMP were screened for both agonism and antagonism, the latter in the presence of AMP at ≈ EC50. All enzymes were unaffected by [C2] ≤ 100 μM. Representative data are shown for the effects of AMP and C2 on PFK1 and FBP1 activity. Results are representative of three independent experiments conducted on one enzyme preparation. […]

[2] = target: T2, fructose-1,6-bisphosphatase-1 (FBP1) (Mus musculus, UniProt Q9QXD6); experiment: FBP1 enzyme assay; assay type: biochemical
T2 construct: made in house; host or cells: E. coli
T2 sequence (Q9QXD6 whole entry): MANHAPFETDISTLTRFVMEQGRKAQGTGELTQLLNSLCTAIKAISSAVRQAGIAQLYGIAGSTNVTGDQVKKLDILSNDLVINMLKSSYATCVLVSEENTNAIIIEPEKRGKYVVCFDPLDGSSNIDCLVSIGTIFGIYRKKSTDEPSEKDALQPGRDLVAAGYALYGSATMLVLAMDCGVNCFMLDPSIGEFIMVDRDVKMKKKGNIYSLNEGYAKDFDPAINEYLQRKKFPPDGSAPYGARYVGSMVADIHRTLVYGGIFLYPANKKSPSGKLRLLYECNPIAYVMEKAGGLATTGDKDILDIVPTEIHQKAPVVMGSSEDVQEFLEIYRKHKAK
Experimental: as §1

T1 sequence (P47857 whole entry): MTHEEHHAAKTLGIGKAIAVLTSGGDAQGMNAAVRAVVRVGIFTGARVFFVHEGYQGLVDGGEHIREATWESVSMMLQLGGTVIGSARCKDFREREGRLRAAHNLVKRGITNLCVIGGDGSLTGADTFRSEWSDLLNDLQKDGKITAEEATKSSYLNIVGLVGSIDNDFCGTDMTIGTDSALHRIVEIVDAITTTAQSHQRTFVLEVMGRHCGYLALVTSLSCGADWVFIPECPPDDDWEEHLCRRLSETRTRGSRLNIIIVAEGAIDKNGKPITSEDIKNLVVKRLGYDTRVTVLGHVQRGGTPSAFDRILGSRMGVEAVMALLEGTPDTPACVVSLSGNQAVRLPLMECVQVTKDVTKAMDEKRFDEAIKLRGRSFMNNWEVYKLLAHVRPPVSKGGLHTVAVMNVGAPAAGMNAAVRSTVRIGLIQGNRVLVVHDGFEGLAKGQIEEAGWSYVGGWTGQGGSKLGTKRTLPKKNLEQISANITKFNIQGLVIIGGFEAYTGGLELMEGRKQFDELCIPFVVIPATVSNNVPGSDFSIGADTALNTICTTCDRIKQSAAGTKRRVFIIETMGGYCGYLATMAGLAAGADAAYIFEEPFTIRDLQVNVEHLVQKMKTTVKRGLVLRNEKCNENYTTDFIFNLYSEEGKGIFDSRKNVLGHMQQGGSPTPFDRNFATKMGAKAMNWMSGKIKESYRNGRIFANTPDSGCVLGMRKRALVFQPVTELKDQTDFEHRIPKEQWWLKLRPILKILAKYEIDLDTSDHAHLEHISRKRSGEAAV

| Compound | EC50 ([1]; read-out: EC50, activation of PFK1) [µM] | IC50 ([2]; read-out: IC50, inhibition of FBP1) [µM] | effect on PFK1 ([1]; concentrations up to 100 μM) | effect on FBP1 ([2]; concentrations up to 100 μM) |
| --- | --- | --- | --- | --- |
| Nc1ncnc2c1ncn2[C@@H]1O[C@H](COP(=O)(O)O)[C@@H](O)[C@H]1O [AMP, reference compound] | 33 | 5 |  |  |
| O=P(O)(O)c1ccc(-c2cc(O)on2)o1 [Compound C2, 5-(5-hydroxyl-isoxazol-3-yl)-furan-2-phosphonic acid] |  |  | no effect | no effect |
